Experimental data published in patent US20050209278A1, “Piperidinyl- and piperazinyl-sulfonylmethyl hydroxamic acids and their use as protease inhibitors” (priority 2002, published 2005).
“And” between values parts separate entries of the source, which are not always exact repeats. Equal values may be shown once.

Tests used:
MMP-1 = target: T1, MMP-1 (Homo sapiens, UniProt P03956); experiment: In vitro MMP inhibition, IC50 determination (fluorogenic substrate I); type: biochemical; conditions: value in parentheses; read-out: MMP-1 (IC-50)
T1 construct: made in house; host or cells: MMP-1-transfected HT-1080 cells (spent media)
T1 sequence (P03956 100-469): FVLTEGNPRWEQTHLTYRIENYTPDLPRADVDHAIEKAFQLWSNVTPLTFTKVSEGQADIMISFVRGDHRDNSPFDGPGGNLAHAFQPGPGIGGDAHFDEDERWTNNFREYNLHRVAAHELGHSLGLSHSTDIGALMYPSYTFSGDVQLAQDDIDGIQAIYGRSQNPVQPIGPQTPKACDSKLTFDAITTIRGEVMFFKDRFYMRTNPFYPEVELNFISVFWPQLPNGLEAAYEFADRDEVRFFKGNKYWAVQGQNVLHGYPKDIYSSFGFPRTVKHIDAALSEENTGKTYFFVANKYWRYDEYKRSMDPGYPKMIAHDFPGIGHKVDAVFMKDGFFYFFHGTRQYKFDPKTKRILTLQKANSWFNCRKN
Procedure: Several hydroxamic acids and salts thereof were analyzed in in vitro assays to determine their ability to inhibit the MMP cleavage of peptide substrates. […] and IC50 constants were calculated from the assayed hydroxamic acid-MMP interactions. Human recombinant MMP-1, MMP-2, MMP-9, MMP-13, and MMP-14 were used in this assay. All enzymes were prepared in Assignee's laboratories following usual laboratory procedures. Protocols for the preparation and use of these enzymes are available in the scientific literature. See, e.g., Enzyme Nomenclature (Academic Press, San Diego, Calif., 1992) (and the citations therein). See also, Freije et al., “Molecular cloning and expression of collagenase-3, a novel human matrix metalloproteinase produced by breast carcinomas,” J Biol. Chem., 269(24), 16766-16773 (1994). The MMP-1 proenzyme was purified from the spent media of MMP-1-transfected HT-1080 cells provided by Dr. Harold Welgus of Washington University (St. Louis, Mo.). The protein was purified on a zinc chelating column. All MMPs were activated using 4-aminophenylmercuric acetate (“APMA”, Sigma Chemical, St. Louis, Mo.) or trypsin. MMP-9 also was activated using human recombinant MMP-3 (purified in Assignee's laboratory following standard cloning and purification techniques). […] Substrate (I) was purchased from Baychem (Redwood City, Calif.), and substrate II was prepared Assignee's laboratory. Substrate I was used in the IC50 determination assays, while substrate II was used in the Ki determination assays. In the absence of MMP inhibitory activity, either substrate is cleaved at the Gly-Leu peptide bond. […] The stock solutions of the assayed hydroxamic acids (or salts thereof) were prepared in 1% dimethyl sulfoxide (DMSO). […] The experiment controls contained the same amount of Buffer A/DMSO as the assayed sample, but contained no hydroxamic acid (or salt thereof). The assays from which the IC50 determinations were made were performed as follows. […] Louis, Mo.). The assayed hydroxamic acid samples were incubated in MicrofluorTM White Plates (Dynatech, Chantilly, Va.) and analyzed on a Perkin Elmer […] plate reader (Norwalk, Conn.). The excitation wavelength was 328 nm, and the emission wavelength-415 nm. […] As stated in the previous paragraph, samples containing varying concentrations of the same assayed hydroxamic acid were prepared. Inhibition was measured as a reduction in fluorescent intensity as a function of MMP inhibitor concentration. […] All values in Table 2 are given in nM units. The IC50 measurements are in parenthesis.

MMP-14 = target: T2, MMP-14 (Homo sapiens, UniProt P50281); experiment: as above; type: biochemical; conditions: value in parentheses; read-out: MMP-14 (IC-50)
T2 construct: The catalytic domain enzyme was expressed in E. coli inclusion bodies, solubilized in urea; made in house
Procedure: Several hydroxamic acids and salts thereof were analyzed in in vitro assays to determine their ability to inhibit the MMP cleavage of peptide substrates. […] and IC50 constants were calculated from the assayed hydroxamic acid-MMP interactions. Human recombinant MMP-1, MMP-2, MMP-9, MMP-13, and MMP-14 were used in this assay. All enzymes were prepared in Assignee's laboratories following usual laboratory procedures. Protocols for the preparation and use of these enzymes are available in the scientific literature. See, e.g., Enzyme Nomenclature (Academic Press, San Diego, Calif., 1992) (and the citations therein). See also, Freije et al., “Molecular cloning and expression of collagenase-3, a novel human matrix metalloproteinase produced by breast carcinomas,” J Biol. Chem., 269(24), 16766-16773 (1994). The MMP-14 full length cDNA was provided by Dr. Gregory Goldberg of Washington University (St. Louis, Mo.). The catalytic domain enzyme was expressed in E. coli inclusion bodies, solubilized in urea, purified on a preparative […] reverse phase HPLC column, and then refolded in the presence of zinc acetate and purified for use. All MMPs were activated using 4-aminophenylmercuric acetate (“APMA”, Sigma Chemical, St. Louis, Mo.) or trypsin. MMP-9 also was activated using human recombinant MMP-3 (purified in Assignee's laboratory following standard cloning and purification techniques). […] Substrate (I) was purchased from Baychem (Redwood City, Calif.), and substrate II was prepared Assignee's laboratory. Substrate I was used in the IC50 determination assays, while substrate II was used in the Ki determination assays. In the absence of MMP inhibitory activity, either substrate is cleaved at the Gly-Leu peptide bond. […] The stock solutions of the assayed hydroxamic acids (or salts thereof) were prepared in 1% dimethyl sulfoxide (DMSO). […] The experiment controls contained the same amount of Buffer A/DMSO as the assayed sample, but contained no hydroxamic acid (or salt thereof). The assays from which the IC50 determinations were made were performed as follows. […] Louis, Mo.). The assayed hydroxamic acid samples were incubated in MicrofluorTM White Plates (Dynatech, Chantilly, Va.) and analyzed on a Perkin Elmer […] plate reader (Norwalk, Conn.). The excitation wavelength was 328 nm, and the emission wavelength-415 nm. […] As stated in the previous paragraph, samples containing varying concentrations of the same assayed hydroxamic acid were prepared. Inhibition was measured as a reduction in fluorescent intensity as a function of MMP inhibitor concentration. […] All values in Table 2 are given in nM units. The IC50 measurements are in parenthesis.

| IC50 (MMP-1) | IC50 (MMP-14) | SMILES |
| --- | --- | --- |
| > 10 µM | > 10 µM | CCCCOc1ccc(N2CCN(S(=O)(=O)C3(C(=O)NO)CCN(CC4CC4)CC3)CC2)cc1 [Example 298] |
| > 10 µM | 2.24 µM | C#CCN1CCC(C(=O)NO)(S(=O)(=O)N2CCN(c3ccc(OCCCC)cc3)CC2)CC1 [Example 303] |

Continued, compound first:

| SMILES | IC50 (MMP-1) | IC50 (MMP-14) |
| --- | --- | --- |
| CCCCOc1ccc(N2CCN(S(=O)(=O)C3(C(=O)NO)CCN(c4ccc(C)cc4)CC3)CC2)cc1 [Example 295] | > 10 µM | > 10 µM |
| CCCCOc1ccc(N2CCN(S(=O)(=O)C3(C(=O)NO)CCN(c4ccc(C)cc4)CC3)CC2)cc1F [Example 296] | > 10 µM | > 10 µM |
| COCCOc1ccc(N2CCN(S(=O)(=O)C3(C(=O)NO)CCN(C4CC4)CC3)CC2)cc1F [Example 297] | > 10 µM | > 10 µM and 6.47 µM |
| CCCCOc1ccc(N2CCN(S(=O)(=O)C3(C(=O)NO)CCN(C4CC4)CC3)CC2)cc1 [Example 301] | > 10 µM | 5.63 µM |
